Results from article PMC11436757, “BRCA2 stabilises RAD51 and DMC1 nucleoprotein filaments through a conserved interaction mode” (Nature Communications, 2024).
Entries after “also recorded” stand apart in the source; their conditions may differ. No end group written: not given here.

How the values were obtained:
DMC1-ssDNA filaments = assay: EMSA, protection of DMC1-ssDNA filaments from BRC4-mediated disruption; format: biochemical, human; conditions: 10-fold excess of BRC4
Experimental: Finally, we tested whether binding of BRCA2 Ex14 protects DMC1-ssDNA nucleoprotein filaments from BRC4-mediated disruption (Fig. 3c). […] Further, whilst the core PhePP interaction site is sufficient to stimulate DMC1-ssDNA nucleoprotein filament formation, surrounding amino-acids that are present within Ex14 (but not Ex14-Tr) are necessary to super-shift filaments and confer protection from BRC4-mediated disruption.
(§1) To form nucleoprotein filaments, DMC1 and RAD51 was incubated with fluorescent 100-base ssDNA (5’-FAM- […]-3’) at the concentrations indicated in the figures for 30 minutes at 4 °C in reaction buffer. For DMC1, reaction buffer is 25 mM TEA (triethanolamine) pH 7.5, 1 mM ATP, 2 mM MgCl2, 0.1 mg/ml BSA, 2 mM DTT, 200 mM KCl. For RAD51, reaction buffer is 50 mM TEA (triethanolamine), 2 mM ATP, 0.5 mM MgCl2, 2 mM DTT. For assays requiring incomplete nucleoprotein filament assembly, the reaction buffer consisted of 50 mM TAE (tris, acetate, EDTA) pH 7.5, 2 mM ATP, 2 mM MgCl2, 2 mM DTT. In nucleoprotein formation stimulation assays or supershift experiments, BRCA2Ex14 or BRCA2Ex14-AAA were added for a further 30 min at 4 °C. […] Glycerol was added at a final concentration of 3%, and samples were analysed by electrophoresis on a 1% (w/v) (for DMC1) or 0.66% (w/v) (for RAD51) agarose gel in 0.5x TAE pH 8.0 at 20–40 V for ~4 h at 4 °C. DNA was detected by FAM using a Typhoon^TM FLA 9500 (GE Healthcare), with 473 nm laser at excitation wavelength 490 nm and emission wavelength 520 nm, using the LPB filter and a PMT voltage of 500 V. To analyse RAD51 nucleoprotein filaments assembled upon 100-base poly(dT) ssDNA, gels were stained post-run using SYBR^TM Gold Nucleic Acid Gel Stain (Invitrogen) and detected using a Typhoon^TM FLA 9500 (GE Healthcare).

DMC1 ΔN loop mutant = molecular target: T1, DMC1 ΔN loop mutant (Homo sapiens, UniProt Q14565, A148D/A183D/D180S/D182S/G147I/G149R/G153E/H181G/N178G/P152G/V179L/Y151G); assay: Microscale thermophoresis (MST), BRCA2 peptide and DMC1 ΔN loop mutant; format: binding; conditions: labelled DMC1 ΔN loop mutant 150 nM; pH 8.0
T1 construct: DMC1 ΔN (83-340) were cloned into pHAT4; made in house
T1 sequence (Q14565 83-340 G147I/A148D/G149R/Y151G/P152G/G153E/N178G/V179L/D180S/H181G/D182S/A183D limits assumed): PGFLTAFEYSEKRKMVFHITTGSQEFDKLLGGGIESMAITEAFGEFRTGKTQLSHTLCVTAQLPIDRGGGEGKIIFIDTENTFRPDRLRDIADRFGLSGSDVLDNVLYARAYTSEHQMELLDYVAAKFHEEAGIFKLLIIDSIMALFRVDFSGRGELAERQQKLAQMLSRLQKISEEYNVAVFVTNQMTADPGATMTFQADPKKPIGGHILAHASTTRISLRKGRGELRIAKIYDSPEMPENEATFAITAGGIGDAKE
Experimental: DMC1 ΔN and DMC1 ΔN loop mutant were labelled in 10 mM HEPES pH 8.0, 150 mM NaCl with an amine reactive fluorescent dye (MonolithTM Protein Labelling Kit BLUE-NHS, Nanotemper GmbH). A serial dilution of titrant (peptide) was prepared in 10 mM HEPES pH 8.0, 150 mM NaCl, 0.05 % Tween-20. The concentration of labelled DMC1 ΔN or DMC1 ΔN loop mutant were constant at 150 nM and the concentration of the interacting peptide was titrated in 1:1 dilutions starting from 750 µM. An equal volume (10 µl) of the serial dilution and of the diluted labelled DMC1 were mixed and loaded in glass capillaries (MonolithTM NT.115 MST Premium Coated Capillaries, Nanotemper GmbH). The initial fluorescence and the thermophoretic mobility were measured on a Monolith NT.115 system (NanoTemper Technologies). […]
As a change in initial fluorescence was detected, SDS denaturation (SD) tests were performed according to the manufacturer’s instructions to determine whether these changes were ligand-induced and whether the data could therefore be used to derive affinity measurements. […] After incubating each for 5 minutes at 95 °C to denature the proteins and subject to brief centrifugation, the samples were loaded onto Premium Coated Capillaries and their initial fluorescence measurements recorded. […] Initial fluorescence readings were used to derive binding affinities.

RAD51-ssDNA filaments = conditions: ref [33],[34]; cited from earlier work
Source text: BRCA2 interacts with RAD51 and DMC1 recombinases through BRC repeats and PhePP motifs (Fig. 1a)[21],[25]–[28]. The eight BRC repeats, located within BRCA2’s central exon 11 region, bind to RAD51 and DMC1 with various affinities[25],[29],[30].

[1] = system: RAD51 L180E-ssDNA filaments; assay: EMSA, protection of RAD51 L180E-ssDNA filaments from BRC4-mediated disruption (random sequence ssDNA); format: biochemical; conditions: 100-nt random ssDNA
Experimental: as §1

Substance: ATRNEKMRHLITTGRPTKVFVPPFKTKSHFHRVE [Ex14]
- protection of DMC1-ssDNA filaments from BRC4-mediated disruption (DMC1-ssDNA filaments; 5-fold excess (55 μM) peptide): complete protection
- protection of DMC1-ssDNA filaments from BRC4-mediated disruption (DMC1-ssDNA filaments; TEA pH 7.5 + KCl, Ex14 10-fold stoichiometric excess (110 μM)): protected against BRC4-mediated disruption; also recorded: protected filaments from disruption
- protection of DMC1-ssDNA filaments from BRC4-mediated disruption (DMC1-ssDNA filaments; equimolar (11 μM) peptide): some protection
- interaction by MST (in words) (DMC1 ΔN loop mutant): not detectable; also recorded: abolished its ability to bind Ex14

Substance: Ex27: BRCA2 exon 27 PhePP peptide, amino acids 3270-3315 (ALDFLSRLPLPPPVSPICTFVSPAAQKAFQPPRSCGTKYETPIKKK; UniProt P51587 3270-3315, looked up, fragment)
- protection of nucleoprotein filaments from BRC-mediated disruption (RAD51-ssDNA filaments): protects nucleoprotein filaments from BRC-mediated disruption
- protection of RAD51 L180E-ssDNA filaments from BRC4-mediated disruption [1]: not protected; also recorded: abrogated
